{"source": "patent US11607423B2", "about": "“Combination of a cannabinoid and a chemotheraopeutic agent for the treatment of breast cancer” (Akos Biosciences, Inc., priority 2018, dated 2023)", "key": {"[1]": {"test_system": "breast cancer cell line MCF7", "test": "MCF7 cell viability by cell counting with trypan blue after 48 h", "assay_type": "cell-based", "conditions": "CBD 0.1, 1 or 10 μM, FIG. 1", "description": "The breast cancer cell line MCF7, growing exponentially, was reset at a concentration of 1×10^4/ml and allowed to adhere overnight."}, "pERK": {"test_system": "pERK", "test": "pERK level by western blotting in MCF7 cells, relative to GAPDH loading control", "assay_type": "cell-based", "conditions": "CBD 100 nM, 1 μM or 10 μM, 48 h, band density relative to GAPDH, 5 separate experiments, FIG. 2", "experimental": "The breast cancer cell line MCF7, growing exponentially, was reset at a concentration of 1×10^4/ml and allowed to adhere overnight. Cannabidiol (CBD) was added at 100 nM, 1 μM, or 10 μM, and cells were harvested for standard western blotting techniques after 48 h. Immunoprobing was performed using anti-pERK antibodies, and the densities of each band determined. These values were then expressed relative to a GAPDH loading control."}}, "data": [{"molecule": "C=C(C)[C@@H]1CCC(C)=C[C@H]1c1c(O)cc(CCCCC)cc1O", "note": "[CBD, cannabidiol]", "values": [{"measurement": "viability of cancer cells", "setting": "[1]", "value": "unaffected"}, {"measurement": "pERK relative to controls", "setting": "pERK", "value": "increased"}]}]}
